Assay results from patent US20090011447A1, “QUANTIFICATION OF VITELLOGENIN” (priority 2006, published 2009).
“And” between values parts separate entries of the source, which are not always exact repeats. Identical values can stand only once.

Experiments:
Format in all cases: in vivo
[1] = system: plasma Vtg; assay: Vtg induction with β-estradiol in Rainbow trout, plasma signature peptide quantified by HPLC-QqToF-MS/MS; conditions: experimental (E) Rainbow trout, individual fish
Experimental: (§1) Thirteen juvenile Rainbow trout and ten mature Atlantic salmon were kept in two 60 gallon tanks with running fresh and sea water, respectively. A 12 hour light-darkness cycle was maintained during the experiment. After one month of acclimatization, experimental fish were injected intraperitoneally four times, at one week intervals, with a dose of 10 mg of β-estradiol per kilogram of body weight using a 10 mg/mL solution in oil:acetone (9:1). Control fish were injected with the oil:acetone solution only.
(§2) One week before the first injection and one week after the last injection, fish were anesthetized using tricaine methanesulfonate (TMS) and blood samples were collected from the caudal vein using heparinized syringes and transferred in 1 mL portions into plastic tubes kept in ice. Samples were centrifuged at 3000 rpm for 5 minutes at 0° C. Plasma was separated and kept frozen at −80° C. until further analysis.
(§3) Five μL of plasma were mixed with 100 μL of denaturing buffer (8M urea, 4 mM dithiothreitol) and heated at 65° C. Then, 300 μL of a 50 mM solution of NH4HCO3 were added, followed by 95 μL of a 20 μg/mL trypsin solution. Digestion was carried out at 38° C. for 24 hours. Aliquots of 100 μL of the digested samples were mixed with 380 μL of solvent B (H2O: acetonitrile: acetic acid 70:30:0.1) and spiked with 20 μL of 5 μg/mL labeled standard solution. Finally, the samples were passed through 0.45 μm filters (Millipore Billerica Mass., USA, Cat. No. SJHV004NS) prior to injection into the HPLC.
(§4) In the case of Rainbow trout and salmon, samples and standards were analyzed with a HPLC system (HP 1050 from Hewlett-Packard, Palo Alto Calif., USA) coupled on-line to a QqToF (QStar XL, Applied Biosystems, Foster City Calif., USA) tandem mass spectrometer equipped with an ESI ion source (TurbolonSpray). […]
(§5) For quantification purposes, the extracted ion chromatograms of these diagnostic product ions were generated using a 2 Da mass range window around the selected product ions and manually integrated. […]

[2] = system: plasma Vtg; assay: Vtg induction with β-estradiol in Atlantic salmon, plasma signature peptide quantified by HPLC-QqToF-MS/MS; conditions: experimental (E) Atlantic salmon, individual fish
Experimental: as §1, §2, §3, §4, §5

[3] = system: Vtg; assay: Vtg induction with β-estradiol in Atlantic cod, assessed by SDS-PAGE; conditions: experimental Atlantic cod serum, Coomassie blue stained gel, vs control fish
Experimental: Twelve mature female Atlantic cod fish were kept in a 60 gallon tank with a running sea water supply and fed, ad libitum. A 12 hour light-darkness cycle was maintained during the experiment. After one month of acclimatization, experimental fish were injected intraperitoneally four times, at one week intervals, a dose of 10 mg of β-estradiol per kilogram of fish body weight using a 10 mg/ml solution in oil:acetone (9:1). Control fish were injected only with the oil:acetone solution. One week after the last injection, fish were anesthetized using tricaine methanesulfonate (TMS) and bled. Blood samples were collected from the caudal vein using heparinized syringes and transferred in 1 mL portions into plastic tubes kept in ice. Twenty microliters of a 4 TIU aprotinin solution were added to each sample, homogenized and centrifuged at 3000 rpm for 5 minutes at 0° C. Plasma was separated and kept frozen at -80° C. until further analysis. Separation of Vtg by SDS-PAGE and subsequent “in-gel” digestion was performed following the procedure described in detail by […] et al. with minor modifications^65. Five microliters of thawed plasma from both experimental and control fish were mixed and loaded onto a 6% acrylamide gel and run for one hour at 180 V. The gel was stained using the colloidal Coomassie blue protocol. […]

[4] = converted from SP assuming 1:1 molar ratio
[5] = one week after last of four weekly i.p. injections of 10 mg/kg, 10 mg/kg

`C[C@]12CC[C@@H]3c4ccc(O)cc4CC[C@H]3[C@@H]1CC[C@@H]2O` [β-estradiol] was tested, and the “Vtg Conc, After β-estradiol” value [1] was 0.351 µM and 0.487 µM and 0.343 µM and 0.278 µM and 0.375 µM and 0.471 µM and 0.120 µM and 0.225 µM and 0.113 µM and 0.344 µM and 0.460 µM, the “Vtg Conc, After β-estradiol” value [1, 4] was 6.389 µg/mL and 8.867 µg/mL and 6.239 µg/mL and 5.059 µg/mL and 6.830 µg/mL and 8.562 µg/mL and 2.182 µg/mL and 4.091 µg/mL and 2.057 µg/mL and 6.264 µg/mL and 8.370 µg/mL and the “SP Conc, After β-estradiol” value [1, 5] was 0.576 µg/mL and 0.799 µg/mL and 0.562 µg/mL and 0.456 µg/mL and 0.615 µg/mL and 0.771 µg/mL and 0.197 µg/mL and 0.368 µg/mL and 0.185 µg/mL and 0.564 µg/mL and 0.754 µg/mL. For the same molecule, the “Vtg Conc, After β-estradiol” value [2] was 0.383 µM and 0.591 µM and 0.268 µM and 0.399 µM and 0.330 µM, the “Vtg Conc, After β-estradiol” value [2, 4] was 6.967 µg/mL and 10.758 µg/mL and 4.876 µg/mL and 7.254 µg/mL and 5.997 µg/mL and the “SP Conc, After β-estradiol” value [2, 5] was 0.628 µg/mL and 0.969 µg/mL and 0.439 µg/mL and 0.653 µg/mL and 0.540 µg/mL. For the same molecule, the “Vtg induction (SDS-PAGE band)” value [3] was “strong induced band”.
